Laboratory results published in patent publication US20230068020A1, “MACROLIDE COMPOUND AND ITS USE OF TREATMENT CHRONIC RESPIRATORY DISEASE” (priority 2020, published 2023).

Columns and labels:
THP-1 cell = test: Differentiation of monocyte to macrophage in THP-1 cell line; format: cell-based; conditions: in words
Description: The THP-1 cell line was purchased from ATCC (American Type Culture Collection, Manassas, Va.). Cells were maintained in growth medium (RPMI-1640) with supplemented with 10% heat inactivated bovine serum, 100× Glutamax medium and 0.05 mM β-Mercaptoethanol at 37° C. under 5% CO2. Compounds were dissolved in 0.1% DMSO. Erythromycin was used as a positive control.
For the assessment of the effect of compounds of the present invention on differentiation of monocyte to macrophage in THP-1 cell line, cells were collected and centrifuged at 900 rpm for 4 minutes. The cell density was adjusted to 2.5×10^5/mL. cell suspension of 400 μL was added to each well of 48-well plate following the plate layout. PMA 1 mg, a compound can induce monocyte differentiation, was dissolved in 10 mL DMSO to form 100 μg/mL solution and aliquote it into 1 mL per vial. 1 mL solution can be further aliquoted into 10 μL per vial and stored the aliquots at −20° C. Make 10-fold dilution of PMA with DMSO and then 500-fold dilution with complete medium. 50 μL solution were then added to each well of 48-well plate following the plate layout. Erythromycin and compounds of examples at stock concentration of 10 mM was serially diluted at 10-fold in DMSO. 50 μL solution was added to each well of 48-well plate following the plate layout. After 96 hrs incubation at 37° C., 5% CO2, the plate was washed with DPBS for three times to remove non-adherent cells for three times. Complete medium 180 μL and alarmar blue 20 μL was added to each well. The fluorescent intensity was read at excitation 530 nm and emission 590 nm using PerkinElmer Victor3 after 3 hours plate incubation.
The differentiation activity of compounds of Examples is compared to that of 100 μM erythromycin and the results are shown in FIG. 1 and Table 3.

[1] = tested on: IL-8 expression in BEAS-2B cell; test: LPS induced IL-8 release by BEAS-2B (ELISA); format: cell-based; conditions: in words; BEAS-2B
Description: The inhibitory effect of compounds of Examples on the IL-8 expression in BEAS-2B cell was tested using the following method. BEAS-2B was purchased from ATCC (American Type Culture Collection, Manassas, Va.). Cells were maintained in growth medium (LHC-9) and cultured at 37° C. under 5% CO2. Compounds were dissolved in 0.1% DMSO. Erythromycin was used as a positive control.
For the assessment of the effect of compounds of Examples on IL-8 expression inhibition in BEAS-2B cell line, cells were plated in 24 well plate at a density of 100,000/mL, in a final volume of 1 mL of assay medium. Cells were incubated at 37° C., 5% CO2 for 1 day. After the incubation, compounds were added at day 2 and LPS was added at day 3. A compound source plate was prepared by triplicate five-point 10-fold or 2-fold serial dilutions in DMSO, beginning at 1 mM (final top concentration of compounds of Examples in the assay was 100 μM and the DMSO was 0.1%). The positive control consisted of cells treated with 100 μM erythromycin and negative control was consisted of 0.1% DMSO treated cells. LPS stock solution at 5 mg/mL was made by dissolving 10 mg of LPS powder into 2 mL of ddH2O and aliquoted to 100 μL per vial. Final concentration of LPS in the assay was […] by making 125-fold dilution of stock solution with medium.
Specific immunoreactivity for IL-8 in culture supernatants were measured by a commercially available ELISA kits (R&D Systems, Inc., Minneapolis, Minn.). Each sample was assayed in duplicates as recommended by the manufacture. The concentration of compounds of Examples inhibiting IL-8 production on BEAS-2B by 10% was estimated from a 4-parametric of the normalized dose response curve. (IC10)

SMILES: CC[C@H]1OC(=O)[C@H](C)[C@@H](O[C@H]2C[C@@](C)(OC)[C@@H](O)[C@H](C)O2)[C@H](C)[C@@H](O[C@@H]2O[C@H](C)C[C@H](N(C)C)[C@H]2O)[C@](C)(O)C[C@@H](C)C(=O)[C@H](C)[C@@H](O)[C@]1(C)O [Erythromycin, reference compound]
- effect on THP-1 cell differentiation (THP-1 cell): promotional effect on THP-1 cell differentiation in a dose dependent manner
- LPS-induced IL-8 release [1]: significantly inhibited
